Results on nine compounds are retold here after patent publication US5190929A, “Cyclophosphamide analogs useful as anti-tumor agents” (Research Corporation Technologies, Inc., priority 1988, dated 1993).

The subject of series [1] is L1210 murine leukemia cells, cyclophosphamide-sensitive (/0). The series can be described thus: In vitro soft agar colony-forming cytotoxicity assay, cyclophosphamide-sensitive L1210 cells. It is filed as cell-based, mouse. More on the design: unit not given here. The following applies: L1210 /0 (sensitive); 1-hour exposure, 99% cell kill. From the text: (§1) A soft agar colony-forming assay according to the procedure of Chu and Fischer, Biochem. Pharmacol., 17, 753-767 (1968) was used and modified where necessary. Cultured mouse L1210 and P388 sensitive cells were purchased from EG&G Mason Research Institute, Tumor Bank, Worchester, Mass. Cultured cyclophosphamide resistant L1210 and P388 cells were obtained from Dr. Robert Struck of Southern Research Institute, Birmingham, Ala. Typically, the desired cells (2-3×10^6 cells/ml) in exponential growth and suspended in 6.5 ml of Fischer's medium (Gibco Lab., Grand Island, N.Y.) were divided into six groups (1 control and 5 treated groups) containing an equal number of cells in 1 ml. These cells were then treated with varying doses of drug (solution of perhydrooxazine in media or 20% ethanol-water), diluted with media to give a total volume of 10 ml, and incubated for one hour at 37° C. The cells were washed three times with 3 ml of supplemented Fischer's medium (containing 10% horse serum) by centrifuge (800×g), removal of media by suction, and resuspension of the pellet in media (5 ml). A 1-ml portion was used to determine the cell count with a Coulter counter. From the remainder, a 5-ml suspension of cells was prepared at a density of 10^5 cells/ml, and between 10^2 and 10^5 cells were placed on soft agar and incubated at 37° C. Colonies were counted after 10 days. The log of the surviving fraction was plotted vs. drug concentration and from this plot the LC99 was obtained. (By definition, the LC99 value represents the concentration of drug necessary to effect a 99% cell kill.)

In series [2] the test system is L1210 murine leukemia cells, cyclophosphamide-resistant (/CP). The series can be described thus: In vitro soft agar colony-forming cytotoxicity assay, cyclophosphamide-resistant L1210 cells. It is filed as cell-based, mouse. The following applies: for LC99: L1210 /CP (cyclophosphamide-resistant), 1-hour exposure, 99% cell kill; for RF, resistance factor = ratio of LC99 in resistant/sensitive cells: L1210, 60 min. More on the design: LC99: unit not given here.
From the text: as §1

Series [3] concerns P388 murine leukemia cells, cyclophosphamide-sensitive (/0). The series can be described thus: In vitro soft agar colony-forming cytotoxicity assay, cyclophosphamide-sensitive P388 cells. The format is cell-based, mouse. Further details: unit not given here. The following applies: P388 /0 (sensitive); 1-hour exposure, 99% cell kill.
From the text: as §1

Series [4] deals with P388 murine leukemia cells, cyclophosphamide-resistant (/CP). The series can be described thus: In vitro soft agar colony-forming cytotoxicity assay, cyclophosphamide-resistant P388 cells. It is filed as cell-based, mouse. The following applies: for LC99: P388 /CP (cyclophosphamide-resistant), 1-hour exposure, 99% cell kill; for RF, resistance factor = ratio of LC99 in resistant/sensitive cells: P388, 60 min. Further details: LC99: unit not given here.
From the text: as §1

Another series has as its system L1210 tumor cells. The series can be described thus: In vivo antitumor activity, survival of L1210 bearing mice. More on the design: species or system mouse (male B6 D2 F1). The following applies: for Long Term Survivors: experiment terminated on day 30; for response vs control in vivo at 34 µmol/kg / response vs control in vivo at 51 µmol/kg / response vs control in vivo at 68 µmol/kg / response vs control in vivo at 17 µmol/kg: Mus musculus, L1210, ip, read-out: Survival of L1210 bearing mice - % T/C × 100; for toxicity compared with the reference activated cyclophosphamide: higher doses; for response vs control in vivo at 17 µmol/kg: 17 umol/kg. As to the method:
(§2) Typically 4 groups of 10 male B6 D2 F1 mice (Jackson Breeding Lab., Bar Harbor Me) were injected i.p. with 1×10^5 L1210 tumor cells. Twenty four hours after injection three groups were treated (i.p. injection) with varying doses of drug, and the fourth group received the vehicle alone. The mice were observed daily and death dates were recorded. The experiment was terminated on day 30 and median survival time (days) and % T/C (ratio of median survival time of treated group divided by the […] survival time of the control group) was calculated. The drug was delivered using either an isotonic saline solution or a carboxymethyl cellulose suspension depending on the solubility of the drug.

Another series relates to CP-resistant L1210 cells. The series can be described thus: In vivo antitumor activity, survival of mice bearing CP-resistant L1210 cells. Further details: species or system mouse (male B6 D2 F1). The following applies: for Survival of L1210 bearing mice - % T/C × 100: CP-resistant L1210, i.p. As to the method: as §2

SMILES strings stand for the structures.

On to `Cc1ccc(C2CC(OO)NP(=O)(N(CCCl)CCCl)O2)cc1` (stereo not drawn) [Compound 6, 4-Hydroperoxy-6-p-tolylcyclophosphamide], for which the LC99 stood at 5 in series [1], 6 in series [2], 3 in series [3] and 3 in series [4]. In addition, the “RF, resistance factor = ratio of LC99 in resistant/sensitive cells” value in series [2] is 1.2; in series [4] it was 1.0. In addition, the “Long Term Survivors” value with L1210 tumor cells (51 umol/kg, i.p.) is given as 1/6; with L1210 tumor cells (68 umol/kg, i.p.) it was 1/6. In addition, the response vs control in vivo at 34 µmol/kg with L1210 tumor cells (34 umol/kg, i.p.) is 150%. Moreover, the response vs control in vivo at 51 µmol/kg in the series on L1210 tumor cells (51 umol/kg, i.p.) stood at 175%. Besides, the response vs control in vivo at 68 µmol/kg with L1210 tumor cells (68 umol/kg, i.p.) was 180%. In addition, in the series on L1210 tumor cells (all doses tested), the “antitumor activity in L1210 leukemic mice” value (shortened to “antitumor activity”) is “highly active at all doses tested”. In addition, the “toxicity compared with the reference activated cyclophosphamide” value in the series with L1210 tumor cells is “less toxic at higher doses than the reference activated cyclophosphamide”.

Take `CC(C)C1CC(OO)NP(=O)(N(CCCl)CCCl)O1` (stereo not drawn) [Compound 2, 4-hydroperoxy-6-isopropylcyclophosphamide]: the LC99 in series [1] is 105; in series [2], 115; in series [3] it was 86; in series [4], 61. For the same compound, the “RF, resistance factor = ratio of LC99 in resistant/sensitive cells” value is recorded as 1.1 in series [2] and 0.7 in series [4].

In the case of `O=[N+]([O-])c1ccc(C2CC(OO)NP(=O)(N(CCCl)CCCl)O2)cc1` (stereo not drawn) [Compound 5, 4-hydroperoxy-6-p-nitrophenylcyclophosphamide], the LC99 in series [1] turned out to be 8; in series [2], 8; in series [3] it was 7; in series [4] it was 3. The “RF, resistance factor = ratio of LC99 in resistant/sensitive cells” value is on record as 1.0 in series [2] and 0.4 in series [4]. Further, the “Long Term Survivors” value in the series on L1210 tumor cells (34 umol/kg, i.p.) is 1/6; in the series on L1210 tumor cells (51 umol/kg, i.p.) it was 2/6; with L1210 tumor cells (68 umol/kg, i.p.), 4/6. Also, in the series with L1210 tumor cells (34 umol/kg, i.p.), the response vs control in vivo at 34 µmol/kg turned out to be 163%. Further, the response vs control in vivo at 51 µmol/kg in the series with L1210 tumor cells (51 umol/kg, i.p.) amounted to 194%. In the series with L1210 tumor cells (68 umol/kg, i.p.), the response vs control in vivo at 68 µmol/kg stood at 225%. In addition, the “antitumor activity” value in the series with L1210 tumor cells (all doses tested) is given as “highly active at all doses tested”. For the same compound, the “toxicity compared with the reference activated cyclophosphamide” value with L1210 tumor cells is listed as “less toxic at higher doses than the reference activated cyclophosphamide”.

In the case of `O=P1(N(CCCl)CCCl)NC(OO)CC(c2ccccc2)O1` (stereo not drawn) [Compound 4, 4-hydroperoxy-6-phenylcyclophosphamide], the LC99 stood at 17 in series [1], 15 in series [2], 11 in series [3] and 7 in series [4]. Further, the “RF, resistance factor = ratio of LC99 in resistant/sensitive cells” value is reported as 0.9 in series [2] and 0.6 in series [4]. In the series with L1210 tumor cells (51 umol/kg, i.p.), the “Survival of L1210 bearing mice - % T/C × 100” value is on record as “toxic”. Moreover, the response vs control in vivo at 17 µmol/kg in the series on L1210 tumor cells (i.p.) is 117%. Besides, in the series on L1210 tumor cells (34 umol/kg, i.p.), the response vs control in vivo at 34 µmol/kg was found to be 144%.

`O=P1(N(CCCl)CCCl)NC(OO)CC(CCc2ccccc2)O1` (stereo not drawn) [Compound 3, 4-hydroperoxy-6-phenethylcyclophosphamide]: the LC99 is given as 11 in series [1], 9 in series [2], 9 in series [3] and 5 in series [4]. The “RF, resistance factor = ratio of LC99 in resistant/sensitive cells” value in series [2] stood at 1.1; in series [4] it was 0.6. Moreover, the response vs control in vivo at 34 µmol/kg in the series with L1210 tumor cells (34 umol/kg, i.p.) amounted to 106%. In addition, the response vs control in vivo at 51 µmol/kg in the series with L1210 tumor cells (51 umol/kg, i.p.) amounted to 25%.

As to `O=P1(N(CCCl)CCCl)NC(OO)CC(c2ccncc2)O1` (stereo not drawn) [Compound 9, 4-Hydroperoxy-6-(4-pyridyl)cyclophosphamide], the LC99 in series [1] is 53; in series [2] it was 57; in series [3], 44; in series [4] it was 27. Also, the results for the “RF, resistance factor = ratio of LC99 in resistant/sensitive cells” value in series [2] and in series [4] were 1.1 and 0.6, respectively. In addition, in the series on L1210 tumor cells (68 umol/kg, i.p.), the “Long Term Survivors” value was 1/6. In the series on L1210 tumor cells (i.p.), the response vs control in vivo at 17 µmol/kg worked out at 131%. For the same compound, the response vs control in vivo at 34 µmol/kg in the series with L1210 tumor cells (34 umol/kg, i.p.) worked out at 150%. The response vs control in vivo at 51 µmol/kg with L1210 tumor cells (51 umol/kg, i.p.) was 164%. Besides, the response vs control in vivo at 68 µmol/kg in the series with L1210 tumor cells (68 umol/kg, i.p.) worked out at 193%. For the same compound, in the series with L1210 tumor cells (all doses tested), the “antitumor activity” value is listed as “highly active at all doses tested”. In addition, the “toxicity compared with the reference activated cyclophosphamide” value in the series on L1210 tumor cells is given as “less toxic at higher doses than the reference activated cyclophosphamide”. The “Survival of L1210 bearing mice - % T/C × 100” value came to 119% in the series on CP-resistant L1210 cells (17 umol/kg), 131% with CP-resistant L1210 cells (34 umol/kg), 138% in the series on CP-resistant L1210 cells (51 umol/kg) and 150% in the series on CP-resistant L1210 cells (68 umol/kg). Further, the “survival / lifespan of mice bearing cyclophosphamide resistant L1210 leukemia” value with CP-resistant L1210 cells (cyclophosphamide resistant L1210 leukemia) was “prolongs the survival of these mice bearing the drug-resistant leukemia at all doses tested”.

On to `CC1CC(OO)NP(=O)(N(CCCl)CCCl)O1` (stereo not drawn) [Compound 1, 4-hydroperoxy-6-methylcyclophosphamide], for which the LC99 in series [1] turned out to be 32; in series [2], 177; in series [3], 26; in series [4] it was 69. Also, the results for the “RF, resistance factor = ratio of LC99 in resistant/sensitive cells” value in series [2] and in series [4] were 5.5 and 2.7, respectively. Also, the “Long Term Survivors” value with L1210 tumor cells (34 umol/kg, i.p.) is listed as 2/6. In the series with L1210 tumor cells (34 umol/kg, i.p.), the response vs control in vivo at 34 µmol/kg amounted to 138%. Besides, the response vs control in vivo at 51 µmol/kg with L1210 tumor cells (51 umol/kg, i.p.) came to 56%. In addition, in the series on L1210 tumor cells (68 umol/kg, i.p.), the response vs control in vivo at 68 µmol/kg is 50%.

As for `O=P1(N(CCCl)CCCl)NC(OO)CC(c2cccnc2)O1` (stereo not drawn) [Compound 8, 4-hydroxyperoxy-6-(3-pyridyl)cyclophosphamide], the LC99 is reported as 36 in series [1], 56 in series [2], 33 in series [3] and 24 in series [4]. Moreover, the results for the “RF, resistance factor = ratio of LC99 in resistant/sensitive cells” value in series [2] and in series [4] were 1.6 and 0.7, respectively. Besides, the response vs control in vivo at 34 µmol/kg with L1210 tumor cells (34 umol/kg, i.p.) was 131%. The response vs control in vivo at 51 µmol/kg with L1210 tumor cells (51 umol/kg, i.p.) turned out to be 69%. Moreover, the response vs control in vivo at 68 µmol/kg in the series on L1210 tumor cells (68 umol/kg, i.p.) is 63%.

For the compound `O=P1(N(CCCl)CCCl)NC(OO)CC(c2ccc(F)cc2)O1` (stereo not drawn) [Compound 7, 4-hydroperoxy-6-p-fluorophenylcyclophosphamide], the LC99 in series [1] came to 7; in series [2], 8; in series [3] it was 6; in series [4] it was 3. The “RF, resistance factor = ratio of LC99 in resistant/sensitive cells” value in series [2] was 1.1; in series [4], 0.5. The “Long Term Survivors” value with L1210 tumor cells (51 umol/kg, i.p.) is on record as 1/6; with L1210 tumor cells (68 umol/kg, i.p.), 1/6. Moreover, the response vs control in vivo at 34 µmol/kg with L1210 tumor cells (34 umol/kg, i.p.) worked out at 163%. For the same compound, the response vs control in vivo at 51 µmol/kg with L1210 tumor cells (51 umol/kg, i.p.) worked out at 188%. In the series with L1210 tumor cells (68 umol/kg, i.p.), the response vs control in vivo at 68 µmol/kg was found to be 63%. Moreover, the “antitumor activity” value in the series with L1210 tumor cells (lower doses tested) was “highly active at the lower doses tested”.
